{"source": "paper PMC4846820", "about": "“A single active catalytic site is sufficient to promote transport in P-glycoprotein” (Scientific Reports, 2016)", "key": {"[1]": {"target": "T1, Wild-type Pgp (Homo sapiens, UniProt P08183)", "T1 sequence (P08183 whole entry)": "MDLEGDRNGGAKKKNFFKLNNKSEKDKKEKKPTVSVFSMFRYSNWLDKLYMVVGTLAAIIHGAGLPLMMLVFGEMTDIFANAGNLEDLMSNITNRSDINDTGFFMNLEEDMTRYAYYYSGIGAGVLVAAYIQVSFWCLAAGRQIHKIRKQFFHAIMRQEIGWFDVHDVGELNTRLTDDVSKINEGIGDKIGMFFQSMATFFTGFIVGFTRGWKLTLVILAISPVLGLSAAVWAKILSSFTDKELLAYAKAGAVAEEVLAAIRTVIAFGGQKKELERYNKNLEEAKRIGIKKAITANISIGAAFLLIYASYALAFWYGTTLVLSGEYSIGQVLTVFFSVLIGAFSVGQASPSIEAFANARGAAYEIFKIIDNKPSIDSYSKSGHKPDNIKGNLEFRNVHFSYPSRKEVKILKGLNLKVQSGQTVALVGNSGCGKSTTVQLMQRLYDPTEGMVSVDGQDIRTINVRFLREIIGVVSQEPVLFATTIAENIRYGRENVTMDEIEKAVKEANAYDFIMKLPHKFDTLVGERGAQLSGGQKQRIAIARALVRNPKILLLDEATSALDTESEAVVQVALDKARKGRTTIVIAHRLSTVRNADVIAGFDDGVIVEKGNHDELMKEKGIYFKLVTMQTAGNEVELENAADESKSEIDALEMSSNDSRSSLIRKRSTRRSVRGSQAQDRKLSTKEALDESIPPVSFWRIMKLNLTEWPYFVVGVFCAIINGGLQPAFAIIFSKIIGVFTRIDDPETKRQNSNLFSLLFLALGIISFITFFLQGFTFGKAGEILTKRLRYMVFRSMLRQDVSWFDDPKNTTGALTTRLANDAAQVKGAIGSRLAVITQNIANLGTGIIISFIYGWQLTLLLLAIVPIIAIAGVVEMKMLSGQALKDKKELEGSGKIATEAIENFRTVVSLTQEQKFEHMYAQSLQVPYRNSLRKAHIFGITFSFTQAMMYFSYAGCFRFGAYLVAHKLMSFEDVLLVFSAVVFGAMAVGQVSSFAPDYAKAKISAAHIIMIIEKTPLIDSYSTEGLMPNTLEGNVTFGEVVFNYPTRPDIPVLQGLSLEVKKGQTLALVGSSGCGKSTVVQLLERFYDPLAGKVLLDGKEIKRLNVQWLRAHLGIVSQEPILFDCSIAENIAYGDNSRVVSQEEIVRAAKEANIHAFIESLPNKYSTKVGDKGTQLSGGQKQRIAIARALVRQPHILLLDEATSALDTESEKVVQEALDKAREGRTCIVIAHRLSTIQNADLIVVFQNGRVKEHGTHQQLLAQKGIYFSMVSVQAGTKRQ", "test": "Nucleotide trapping kinetics (BeFx or Vi), UIC2-A647 labeling", "settings": "for accumulation in the trapped complex: both in WT and single Walker A mutant Pgp variants", "protocol": "The transition state of Pgp was stabilized by the addition of ATP/Mg^2+ and vanadate (Vi) or BeFx at 37 °C. Permeabilized cells were incubated with 100 μM (for WT) or 500 μM (for K433M and K1076M) ATP/Mg^2+ and 0.5 mM Vi[70] or BeFx (200 μM BeSO4 and 1 mM NaF) in the presence or absence of substrates in PBS at 37 °C. 500 μl aliquots were taken at regular intervals and washed twice with 5 ml ice-cold PBS containing Vi or BeFx at the same concentrations that were applied previously during incubation. […] The UIC2-A647 fluorescence intensity of the samples (F) was plotted as a function of time (t). The t1/2 values representing the half-life of the UIC2-reactive Pgp conformation were calculated from an exponential fit of the data points according to the following equation:"}, "[2]": {"tested_on": "single Walker A mutant Pgp (K433M, K1076M)", "test": "Vinblastine-bodipy staining and 15D3-A647 co-localization in MDCK cells", "format": "cell-based, human", "settings": "2 mM vanadate", "experimental": "Cells were plated in 8-well Ibidi μ-Slide (Ibidi GmbH, Martinsried, Germany) two days before the experiments to obtain nearly confluent cultures. The samples were pre-incubated with the following agents: Na-azide (10 mM) and 2-deoxy D-glucose (8 mM), Vi (2 mM) or NEM (50 μM) for 30 min and then further incubated with 100 nM vinblastine-bodipy (VBL-BPY) and 30 μg/ml A647-conjugated 15D3 anti-Pgp antibody for another 30 min at 37 °C.\nCellular localization of Pgp and VBL-BPY staining was studied by a three-laser confocal laser scanning microscope (Olympus FluoView 1000 confocal microscope based on an inverted IX-81 stand with an UPlansAPo 60 × NA 1.35 oil immersion objective, Hamburg, Germany). […] Fluorescence intensities were detected in the spectral ranges of 500–530 nm, 555–655 nm and 655–755 nm, respectively. To assess the co-localization of VBL-BPY (green) and Alexa 647-conjugated 15D3 (red) fluorescence signals, single optical slices of apical membrane surfaces were recorded for double-labeled cells. The pattern and extent of co-localization in the sections were determined by using the cross-correlation scattergrams of the green and red pixels of the images. Co-localization indices were determined from 30–50 cells (in three independent experiments). […]"}, "[3]": {"tested_on": "single Walker A mutant Pgps (K433M and K1076M)", "test": "UIC2 mAb labeling of permeabilized cells, single mutants taken together", "format": "cell-based, human", "protocol": "(§1) Permeabilized cells (1 × 10^6 ml^−1) were pre-incubated for 20 min with nucleotides added in a broad concentration range and then further incubated for 30 min with 10 μg/ml A647-conjugated UIC2 monoclonal antibody (all at 37 °C). UIC2 mAb binding to Pgp is a reversible reaction in the presence of ATP/Mg^2+ (Supplementary Fig. S6), thus, UIC2 was applied at a quasi-saturating concentration (5Kd;UIC2; Supplementary Fig. S5) and the duration of the incubation period was sufficient to reach equilibrium binding of UIC2 (Supplementary Fig. S6).\n(§2) To prevent ATP hydrolysis, ATP was added to permeabilized cells without Mg^2+ in the presence of 5 mM EDTA. Alternatively, ATP was replaced by the non-hydrolysable ATP analogue AMP-PNP/Mg^2+, or the experiment was conducted on ice. […] Following antibody labeling, samples were washed 3 times with ice-cold PBS and centrifuged for 7 min at 635 g at 4 °C. The UIC2-A647 fluorescence intensity of the cells was measured by flow cytometry and plotted as a function of the nucleotide concentration."}, "[4]": {"target": "T1, Wild-type Pgp", "test": "UIC2 mAb labeling of permeabilized NIH 3T3 cells: apparent affinity of nucleotide binding", "protocol": "as §1, §2"}, "[5]": {"target": "T1, Wild-type Pgp", "protocol": "Permeabilized cells trapped in the presence of ATP/Mg^2+ (100 μM for wild-type and 500 μM for single Walker A mutants) and 0.5 mM Vi were washed 3 times with ice-cold PBS and incubated in the presence or absence of ATP and/or substrates (verapamil, vinblastine) at 37 °C. 500 μl aliquots containing 2 × 10^5 cells were taken at regular intervals and washed twice with 5 ml PBS. […] At the end of incubations the samples were washed three times with ice-cold PBS and kept on ice until measurement in the flow cytometer."}, "[6]": {"tested_on": "MDCK cells expressing single Walker A mutant Pgp", "test": "Cytotoxic effect of vinblastine, AlamarBlue assay", "format": "cell-based, canine", "settings": "72 h, single mutants", "protocol": "cells/well. 24 hours later vinblastine was added at different concentrations and the plates were\nfurther incubated for 72 h at 37 °C. The cell viability was determined using the AlamarBlue\nassay (Serotec, UK) measuring the 530/590 nm fluorescence intensity of the dye in an\nautomated microplate reader (BioTec Synergy HT, US). The fluorescence intensities of the\nsamples were normalized to the fluorescence of the vinblastine untreated control sample, and\nplotted as a function of vinblastine concentration. The data points are means of eight parallel\nsamples (±SD) from a representative experiment out of three."}, "[7]": {"target": "double Walker A mutant Pgp (Homo sapiens, UniProt P08183, K1076M/K433M)", "sequence (P08183 whole entry K433M/K1076M)": "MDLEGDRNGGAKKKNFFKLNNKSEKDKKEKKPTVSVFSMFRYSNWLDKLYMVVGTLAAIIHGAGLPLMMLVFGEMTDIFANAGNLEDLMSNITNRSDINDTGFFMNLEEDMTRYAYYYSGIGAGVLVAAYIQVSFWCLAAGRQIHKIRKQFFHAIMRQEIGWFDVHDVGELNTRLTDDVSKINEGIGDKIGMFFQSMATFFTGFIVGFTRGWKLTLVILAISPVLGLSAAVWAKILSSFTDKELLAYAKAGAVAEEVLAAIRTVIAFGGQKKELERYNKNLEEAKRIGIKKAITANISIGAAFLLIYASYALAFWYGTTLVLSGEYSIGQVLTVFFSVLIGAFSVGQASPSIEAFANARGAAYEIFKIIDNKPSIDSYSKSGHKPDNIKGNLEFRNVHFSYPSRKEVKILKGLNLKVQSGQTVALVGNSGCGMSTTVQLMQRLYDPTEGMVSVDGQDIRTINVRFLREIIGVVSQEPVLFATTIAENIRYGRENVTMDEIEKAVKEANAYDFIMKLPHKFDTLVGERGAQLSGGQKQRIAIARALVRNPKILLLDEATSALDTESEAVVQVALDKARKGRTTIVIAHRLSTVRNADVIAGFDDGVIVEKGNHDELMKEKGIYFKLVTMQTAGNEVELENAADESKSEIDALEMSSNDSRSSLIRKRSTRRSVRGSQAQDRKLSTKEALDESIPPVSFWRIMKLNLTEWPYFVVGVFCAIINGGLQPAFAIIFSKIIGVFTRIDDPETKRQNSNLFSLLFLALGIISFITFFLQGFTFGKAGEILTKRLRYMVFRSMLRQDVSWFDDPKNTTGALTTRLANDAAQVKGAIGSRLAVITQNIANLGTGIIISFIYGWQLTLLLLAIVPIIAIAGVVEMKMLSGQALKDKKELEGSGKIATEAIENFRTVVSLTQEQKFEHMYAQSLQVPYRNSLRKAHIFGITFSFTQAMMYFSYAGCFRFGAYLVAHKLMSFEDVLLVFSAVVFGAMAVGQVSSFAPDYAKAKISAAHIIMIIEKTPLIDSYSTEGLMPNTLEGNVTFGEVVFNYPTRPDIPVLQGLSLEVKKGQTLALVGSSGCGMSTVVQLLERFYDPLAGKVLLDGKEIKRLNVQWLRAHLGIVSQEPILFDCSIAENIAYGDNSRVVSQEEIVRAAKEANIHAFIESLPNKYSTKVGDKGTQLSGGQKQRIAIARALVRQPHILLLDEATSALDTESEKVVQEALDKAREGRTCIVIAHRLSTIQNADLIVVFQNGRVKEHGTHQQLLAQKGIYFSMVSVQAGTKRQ", "settings": "apical membrane, MDCK cells, 100 nM VBL-BPY", "protocol": "The pattern and extent of co-localization in the sections were determined by using the cross-correlation scattergrams of the green and red pixels of the images. Co-localization indices were determined from 30–50 cells (in three independent experiments). The Pearson’s co-localization index (CI) provides a reliable estimate on the extent of fluorescence co-localization: CI values close to zero indicate no or a very low degree, while CI ≥ 0.5 reflects a high degree of co-localization, whereas the CI = 1 value would correspond to a full overlap between the two colours in each pixel of the image."}, "[8]": {"target": "K433M Pgp (Homo sapiens, UniProt P08183, K433M)", "sequence (P08183 whole entry K433M)": "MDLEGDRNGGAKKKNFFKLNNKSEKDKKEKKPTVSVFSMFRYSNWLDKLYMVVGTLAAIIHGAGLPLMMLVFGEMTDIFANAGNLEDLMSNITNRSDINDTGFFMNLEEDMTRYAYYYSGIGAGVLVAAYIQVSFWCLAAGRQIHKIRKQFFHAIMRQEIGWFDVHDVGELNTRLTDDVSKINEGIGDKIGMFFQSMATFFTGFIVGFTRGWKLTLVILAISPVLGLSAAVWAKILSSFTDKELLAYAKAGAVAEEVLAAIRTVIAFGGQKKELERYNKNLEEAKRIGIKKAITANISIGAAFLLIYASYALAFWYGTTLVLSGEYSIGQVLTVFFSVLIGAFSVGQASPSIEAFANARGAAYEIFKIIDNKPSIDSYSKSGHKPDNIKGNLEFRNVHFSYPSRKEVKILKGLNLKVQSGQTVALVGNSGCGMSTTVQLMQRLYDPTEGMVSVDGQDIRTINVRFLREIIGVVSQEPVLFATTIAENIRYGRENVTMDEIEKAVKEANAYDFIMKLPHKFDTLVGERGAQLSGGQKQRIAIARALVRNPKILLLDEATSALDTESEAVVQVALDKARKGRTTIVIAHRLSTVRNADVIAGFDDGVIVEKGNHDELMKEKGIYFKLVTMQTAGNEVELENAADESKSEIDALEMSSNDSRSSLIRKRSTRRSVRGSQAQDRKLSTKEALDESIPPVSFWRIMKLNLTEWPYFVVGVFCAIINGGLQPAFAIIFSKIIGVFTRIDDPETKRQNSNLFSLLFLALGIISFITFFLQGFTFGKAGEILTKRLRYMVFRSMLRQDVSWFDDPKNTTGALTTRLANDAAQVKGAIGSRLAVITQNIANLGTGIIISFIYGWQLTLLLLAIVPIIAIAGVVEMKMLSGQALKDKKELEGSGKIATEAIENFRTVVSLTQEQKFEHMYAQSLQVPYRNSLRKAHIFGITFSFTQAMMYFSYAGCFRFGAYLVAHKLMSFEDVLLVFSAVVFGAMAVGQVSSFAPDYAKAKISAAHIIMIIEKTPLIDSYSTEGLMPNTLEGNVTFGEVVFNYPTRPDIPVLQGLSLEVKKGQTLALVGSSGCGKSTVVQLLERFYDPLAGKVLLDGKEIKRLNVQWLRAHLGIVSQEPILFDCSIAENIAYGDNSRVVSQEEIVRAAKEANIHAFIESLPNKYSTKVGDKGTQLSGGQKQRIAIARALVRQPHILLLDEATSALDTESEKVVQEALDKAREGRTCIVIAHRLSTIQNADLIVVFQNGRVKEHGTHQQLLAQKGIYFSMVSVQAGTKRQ", "test": "UIC2 mAb labeling of permeabilized cells: apparent affinity of nucleotide binding", "settings": "37 °C, Mg2+", "protocol": "as §1, §2"}, "[9]": {"target": "K1076M Pgp (Homo sapiens, UniProt P08183, K1076M)", "sequence (P08183 whole entry K1076M)": "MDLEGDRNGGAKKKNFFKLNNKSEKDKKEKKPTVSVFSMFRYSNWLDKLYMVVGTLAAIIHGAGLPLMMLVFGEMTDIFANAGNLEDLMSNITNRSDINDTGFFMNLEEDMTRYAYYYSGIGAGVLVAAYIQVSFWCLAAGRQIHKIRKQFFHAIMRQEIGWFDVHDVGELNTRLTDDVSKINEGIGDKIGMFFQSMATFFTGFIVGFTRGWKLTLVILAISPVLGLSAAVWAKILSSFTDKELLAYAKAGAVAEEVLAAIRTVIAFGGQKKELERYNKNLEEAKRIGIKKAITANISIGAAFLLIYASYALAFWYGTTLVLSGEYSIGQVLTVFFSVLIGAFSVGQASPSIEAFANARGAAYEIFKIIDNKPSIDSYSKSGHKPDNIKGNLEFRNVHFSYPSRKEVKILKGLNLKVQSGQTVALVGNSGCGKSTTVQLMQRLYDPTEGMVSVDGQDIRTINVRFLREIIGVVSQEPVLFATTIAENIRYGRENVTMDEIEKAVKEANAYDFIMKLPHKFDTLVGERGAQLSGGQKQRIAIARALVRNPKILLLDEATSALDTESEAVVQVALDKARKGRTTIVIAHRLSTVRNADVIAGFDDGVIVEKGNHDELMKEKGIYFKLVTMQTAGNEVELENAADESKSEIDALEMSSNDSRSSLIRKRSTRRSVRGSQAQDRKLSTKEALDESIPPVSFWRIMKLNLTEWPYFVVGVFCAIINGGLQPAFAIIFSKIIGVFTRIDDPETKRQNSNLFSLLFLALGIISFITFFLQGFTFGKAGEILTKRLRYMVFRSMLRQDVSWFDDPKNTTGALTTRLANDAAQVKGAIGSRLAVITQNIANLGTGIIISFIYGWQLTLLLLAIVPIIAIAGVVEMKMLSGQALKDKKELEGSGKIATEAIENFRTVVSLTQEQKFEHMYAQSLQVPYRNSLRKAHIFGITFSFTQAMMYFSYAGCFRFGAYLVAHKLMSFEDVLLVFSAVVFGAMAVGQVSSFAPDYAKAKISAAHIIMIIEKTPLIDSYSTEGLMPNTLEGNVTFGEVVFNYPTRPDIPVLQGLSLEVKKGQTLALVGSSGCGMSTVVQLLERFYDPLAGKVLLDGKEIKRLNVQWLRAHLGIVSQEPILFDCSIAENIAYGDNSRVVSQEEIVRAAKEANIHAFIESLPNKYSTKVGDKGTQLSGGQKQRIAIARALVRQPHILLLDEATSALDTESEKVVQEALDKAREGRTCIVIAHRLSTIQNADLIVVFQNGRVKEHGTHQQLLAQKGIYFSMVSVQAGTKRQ", "test": "UIC2 mAb labeling of permeabilized cells: apparent affinity of nucleotide binding", "settings": "37 °C, Mg2+", "protocol": "as §1, §2"}, "[10]": {"target": "T1, Wild-type Pgp", "test": "VBL-BPY binding in permeabilized NIH 3T3 cells (confocal microscopy)", "settings": "5 mM AMP-PNP", "protocol": "Cells permeabilized by Staphylococcus alpha toxin (a) or Streptolysin O (b) were treated with different concentrations of CsA, ATP/Mg^2++ vanadate (Vi) or AMP-PNP/Mg^2+ followed by co-staining with VBL-BPY and 15D3-A647. The ratio of the VBL-BPY and 15D3-A647 fluorescence intensity was determined in pixels representing the plasma membrane, selected on the basis of 15D3-A647 fluorescence intensity exceeding the threshold of 300. Nucleotide-treated samples were compared to permeabilized ATP-depleted cells (0 mM nucleotide); the values are means ± SD of three independent experiments (***P < 0.001)."}, "[11]": {"target": "T1, Wild-type Pgp", "test": "Recovery from the Vi-trapped post-hydrolysis state (UIC2 labeling)", "settings": "data not shown"}}, "note": "“And” between values parts separate entries of the source, which are not always exact repeats. Equal values may be shown once. Read-outs that look alike come from different tables or passages of the source.", "data": [{"smiles": "[O]=[V]([O-])([O-])[O-]", "note": "[Vi, orthovanadate]", "values": [{"measurement": "t1/2 of Vi trapping", "setting": "[1]; n = 6, Pgp variant not given", "value": "3.92 ± 0.87", "unit": "min"}, {"measurement": "effect on VBL-BPY binding to single Walker A mutants", "setting": "[2]", "value": "fully suppressed"}, {"measurement": "increase in the apparent affinity of the single mutants to ATP on addition of vanadate", "setting": "[3]; ATP/Mg2+, 37 °C", "value": "5–10 fold"}, {"measurement": "effect of Vi on apparent affinity", "setting": "[4]; ATP hydrolysis prevented (Fig. 1b-d)", "value": "not influenced at all"}, {"measurement": "effect of vanadate on apparent affinity", "setting": "[4]; hydrolysis conditions: 37 °C, ATP/Mg2+", "value": "increased the apparent affinity"}]}, {"smiles": "CC[C@]1(O)C[C@@H]2CN(CCc3c([nH]c4ccccc34)[C@@](C(=O)OC)(c3cc4c(cc3OC)N(C)[C@H]3[C@@](O)(C(=O)OC)[C@H](OC(C)=O)[C@]5(CC)C=CCN6CC[C@]43[C@@H]65)C2)C1", "note": "[vinblastine]", "values": [{"measurement": "effect on release of the tightly bound nucleotide from the Vi-trapped complex", "setting": "[5]", "value": "not influenced"}, {"measurement": "accumulation in the trapped complex", "setting": "[1]", "value": "accelerated"}, {"measurement": "apparent affinity for ATP in the presence of substrate", "setting": "[1]; up to 200 μM vinblastine, BeFx, 20 min, 37 °C", "value": "did not change"}, {"measurement": "resistance against the cytotoxic effect of vinblastine", "setting": "[6]", "value": "conferred resistance"}]}, {"smiles": "COC(=O)c1ccccc1-c1c2ccc(=N)cc-2oc2cc(N)ccc12", "note": "[rhodamine 123]", "values": [{"measurement": "accumulation in the trapped complex", "setting": "[1]", "value": "accelerated"}]}, {"smiles": "CCC1(O)CC2CN(CCc3c([nH]c4ccccc34)C(C(=O)OC)(c3cc4c(cc3OC)N(C)C3C(O)(C(=O)OC)C(OC(=O)CCC5=[N+]6C(=Cc7c(C)cc(C)n7[B-]6(F)F)C=C5)C5(CC)C=CCN6CCC43C65)C2)C1", "note": "(stereo not drawn) [VBL-BPY, BODIPY FL vinblastine]", "values": [{"measurement": "Pearson's cross-correlation coefficient between VBL-BPY and 15D3 anti-Pgp antibody signals", "setting": "[7]", "value": "~ 0.8"}]}, {"smiles": "Nc1ncnc2c1ncn2[C@@H]1O[C@H](COP(=O)(O)OP(=O)(O)NP(=O)(O)O)[C@@H](O)[C@H]1O", "note": "[AMP-PNP]", "values": [{"measurement": "Hill slope", "setting": "[8]", "value": "2.06 ± 0.29"}, {"measurement": "KA (apparent nucleotide affinity) for competing UIC2 labeling", "setting": "[8]", "value": "3.40 ± 1.42", "unit": "mM"}, {"measurement": "Hill slope", "setting": "[9]", "value": "1.68 ± 0.23"}, {"measurement": "KA (apparent nucleotide affinity) for competing UIC2 labeling", "setting": "[9]", "value": "3.01 ± 0.92", "unit": "mM"}, {"measurement": "co-localization of VBL-BPY and Pgp", "setting": "[10]", "value": "significant decrease"}, {"measurement": "Hill slope", "setting": "[4]; 37 °C, Mg2+", "value": "1.75 ± 0.34"}, {"measurement": "KA (apparent nucleotide affinity) for competing UIC2 labeling", "setting": "[4]; 37 °C, Mg2+, 10 μg/ml UIC2", "value": "0.27 ± 0.14", "unit": "mM"}]}, {"smiles": "Nc1ncnc2c1ncn2[C@@H]1O[C@H](COP(=O)(O)OP(=O)(O)OP(=O)(O)O)[C@@H](O)[C@H]1O", "note": "[ATP]", "values": [{"measurement": "Hill slope", "setting": "[8]", "value": "0.90 ± 0.32"}, {"measurement": "KA (apparent nucleotide affinity) for competing UIC2 labeling", "setting": "[8]", "value": "2.08 ± 1.04", "unit": "mM"}, {"measurement": "Hill slope", "setting": "[9]", "value": "0.89 ± 0.33"}, {"measurement": "KA (apparent nucleotide affinity) for competing UIC2 labeling", "setting": "[9]", "value": "2.03 ± 0.91", "unit": "mM"}, {"measurement": "effect on release of the tightly bound nucleotide from the Vi-trapped complex", "setting": "[11]", "value": "not influenced"}, {"measurement": "fraction of UIC2 label persisting in saturating ATP", "setting": "[3]; 10 μg/ml UIC2", "value": "~ 50%"}, {"measurement": "KA (apparent affinity for competing UIC2 labeling)", "setting": "[3]; at [UIC2] about 5Kd;UIC2", "value": "~2.5", "unit": "mM"}, {"measurement": "Kd", "setting": "[3]; estimated with Eq. 7 of the kinetic model, read-out: Kd;ATP, dissociation constant of ATP from inward-facing Pgp", "value": "~5000", "unit": "µM"}, {"measurement": "Km", "setting": "[3]; from Eq. 3 of the kinetic model, read-out: predicted KM for ATP-hydrolysis and substrate transport in the absence of UIC2", "value": "~700", "unit": "µM"}, {"measurement": "decrease in apparent affinity for ATP of the single mutants", "setting": "[3]; relative to WT", "value": "~ 10 fold"}, {"measurement": "Hill slope", "setting": "[4]; 4 °C, Mg2+", "value": "0.66 ± 0.17"}, {"measurement": "KA (apparent nucleotide affinity) for competing UIC2 labeling", "setting": "[4]; 4 °C, Mg2+", "value": "2.70 ± 1.83", "unit": "mM"}, {"measurement": "Hill slope", "setting": "[4]; 37 °C, Mg2+", "value": "0.77 ± 0.20"}, {"measurement": "KA (apparent nucleotide affinity) for competing UIC2 labeling", "setting": "[4]; 37 °C, Mg2+, 10 μg/ml UIC2", "value": "0.25 ± 0.16 mM and 0.25 mM"}, {"measurement": "Hill slope", "setting": "[4]; 37 °C, no Mg2+", "value": "1.60 ± 0.22"}, {"measurement": "KA (apparent nucleotide affinity) for competing UIC2 labeling", "setting": "[4]; 37 °C, no Mg2+", "value": "1.92 ± 0.33", "unit": "mM"}, {"measurement": "Kd", "setting": "[4]; read-out: Kd;ATP, dissociation constant of ATP from inward-facing Pgp, estimated with Eq. 7 of the kinetic model from KA and T2/T1;min", "value": "~700", "unit": "µM"}, {"measurement": "Km", "setting": "[4]; read-out: predicted KM for ATP-hydrolysis and substrate transport in the absence of UIC2, from Eq. 3 of the kinetic model", "value": "~60", "unit": "µM"}]}]}
